The test system of data set [1] is rat GIT transit. Nature of the data set: Charcoal propulsion test (gut motility) in rat. Type of data set: in vivo. The conditions noted are these: oral; for % inhibition of rat GIT transit: 60 min before charcoal. As for the experimental part:
The effect of a drug on gut motility can be studied by means of the charcoal propulsion test.
The method used was based on that described by Takemori et al. (J. Pharmacol. Exp. Ther. 169:39, 1969). Test treatments were administered orally 60 minutes prior to an oral dose of a 10% suspension of charcoal in 2.5% gum Arabic (2 ml/kg). Twenty minutes after dosing with charcoal, the rats were sacrificed and the entire gastrointestinal tract was removed quickly and carefully. The distance that the charcoal meal had traveled toward the caecum was measured and expressed as a percentage of the total gut length.

Data set [2] in a line: Comparative bioavailability study of guanfacine in monkeys given guanfacine or guanfacine prodrug. The data set is classed as in vivo, monkey. Particulars: for Cmax: monkey, plasma, po, 0.5 mg/kg. As for the experimental part:
Blood samples were taken at various times after administration and submitted to analysis for the parent drug and prodrug using a qualified LC-MS-MS assay. The following pharmacokinetic parameters derived from the plasma analytical data were determined using Win Nonlin;

The nature of data set [3]: Solubility. Particulars: Solubility.
A short description of data set [4]: Microdose comparative bioavailability study in healthy adult subjects. Type of data set: in vivo. Particulars: both sexes, plasma, healthy human volunteers, oral, 100 µg free base. As for the experimental part: Blood samples were withdrawn pre-dose and at 0.5, 1, 2, 3, 4, 5, 6, 8, 12, 16, 24, 32, and 48 hours post dose and submitted to analysis for the parent drug and prodrug using a validated LC-MS-MS assay. The following pharmacokinetic parameters derived from the plasma analytical data were determined;

The nature of data set [5]: Pharmacokinetics of guanfacine and prodrug in rat hepatic portal and tail veins after oral prodrug. The data set is classed as in vivo. The conditions noted are these: 1 mg/kg. From the text: The collection of blood from the hepatic portal vein following oral administration allows the analysis of absorbed prodrug and active drug levels prior to first pass metabolism in the liver. Systemic levels can be measured by sampling of blood from the tail vein. Rats were surgically prepared under isofluorane anaesthesia by attaching a silicon catheter to the portal vein then exteriorising it at the nape of the neck with a blood collection port attached. Oral doses of compound 3 were administered by gavage as a single bolus dose at a dose volume of 10 mL/kg. At each sampling time serial point blood samples (approximately 0.2 mL) were taken simultaneously from the lateral tail vein cannula and the hepatic portal cannula. After collection of the final blood sample each animal was killed by cervical dislocation. […] Pharmacokinetic parameters in portal and systemic plasma were derived by non-compartmental analysis (linear/logarithmic trapezoidal) using WinNonlin (Version 4.1) software.

Data set [6] addresses T1, a-2A adrenoceptor (Homo sapiens, UniProt P08913).
T1 construct: expressed in transfected cells; host or cells: CHO cells
T1 sequence (P08913 1-465): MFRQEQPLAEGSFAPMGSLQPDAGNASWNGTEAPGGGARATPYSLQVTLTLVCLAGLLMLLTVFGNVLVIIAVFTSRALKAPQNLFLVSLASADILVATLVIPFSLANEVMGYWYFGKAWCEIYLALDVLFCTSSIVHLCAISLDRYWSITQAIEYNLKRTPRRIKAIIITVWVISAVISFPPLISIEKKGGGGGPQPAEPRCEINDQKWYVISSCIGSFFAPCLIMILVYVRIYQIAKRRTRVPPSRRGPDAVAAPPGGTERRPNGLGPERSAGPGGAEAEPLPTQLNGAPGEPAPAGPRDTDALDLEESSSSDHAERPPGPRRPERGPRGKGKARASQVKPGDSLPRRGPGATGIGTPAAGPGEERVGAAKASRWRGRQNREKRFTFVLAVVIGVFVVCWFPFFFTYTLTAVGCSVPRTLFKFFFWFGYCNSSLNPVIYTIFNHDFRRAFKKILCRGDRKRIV
The experiment in a line: a-2 adrenoceptor binding assay, [3H] RX821002 competition. The conditions noted are these: human recombinant CHO cells, [3H] RX821002 (1 nM). From the text: The activation of this receptor is responsible for its intended therapeutic effect. […] The binding assay methodology employed in this study followed that described by […] et al. (Eur. J. Pharmacol. 167:95-104, 1989) and used human recombinant CHO cells expressing a-2 adrenceptors. The competitive binding ligand was [3H]

A short description of data set [7]: physchem.
Data set [8] in a line: Stability studies on guanfacine prodrugs in buffers. Type of data set: physicochemical.
For data set [9], the system named is rat. The experiment in a line: Elevated Plus-Maze Test in the rat. The data set is classed as in vivo. From the text: The method, which detects anxiolytic activity, follows that described by Handley and Mithani (Naunyn. Schmied. Arch. Pharmacol., 327, 1-5, 1984). Rodents avoid open spaces (the open arms of an elevated plus-maze). The percentage of time spent on the open arms and the number of entries in the open arms are considered to be the best measures of anxiety (File, S. E. 1991. Animal models of anxiety. In Biological Psychiatry (G. Racagni, N. Brunello, and T. Fukuda, eds.) pp. 596-599. Elsevier, New York.).
Anxiolytics increase exploratory activity in the open arms, as indicated by increased time spent on the open arms and/or by increased % open-arm entries.

For data set [10] the following is noted: as early as; cited from earlier work.
Setting [11] is: dose 00.1 mg/kg (guanfacine free base equivalents).
Where [12] appears, read: dose 00.3 mg/kg (guanfacine free base equivalents).
Where [13] appears, read: DMSO, organic solvent or mixture, in DMSO.
The mark [14] stands for this setting: pH 1.2, 37° C., 0.1M HCl/NaCl buffer, 1 h.
The mark [15] stands for this setting: pH 1.2, 37° C., 0.1M HCl/NaCl buffer, time 0.
[16] abbreviates: pH 3.0, 20° C., 0.1M citrate buffer, 2 h.
The mark [17] stands for this setting: pH 3.0, 20° C., 0.1M citrate buffer, time 0.
Setting [18] is: pH 6.8, 37° C., 0.1M phosphate buffer, 2 h.
Setting [19] is: pH 6.8, 37° C., 0.1M phosphate buffer, time 0.
[20] abbreviates: pH 7.4, 37° C., 0.1M phosphate buffer, time 0.
The mark [21] stands for this setting: pH 7.4, 37° C., 0.1M phosphate buffer, 2 h, listed as Guanfacine (2-Hydroxyethyl) Carbamate.

The term Cmax denotes the peak of the concentration-time curve. Broadly, the solubility is how much of the substance goes into solution per volume. Usually AUC stands for concentration integrated over time. Broadly, the Ki is a measure of affinity in units of concentration, obtained from inhibition or displacement.

“And” between values parts separate entries of the source, which are not always exact repeats. Identical values can stand only once. Counter-ions that a name gives are not always drawn. Like-named read-outs stand apart in the source and are kept apart here.

For the compound `CCOC(=O)NC(N)=NC(=O)Cc1c(Cl)cccc1Cl.Cl` [Compound 3, {N′-[2-(2,6-Dichloro-phenyl)-acetyl]-guanidinocarbonyloxy}ethane Hydrochloride], the “% inhibition of rat GIT transit” value in data set [1] (setting [11]) is 15%; in data set [1] (setting [12]), 56%; in [1] (dose 100 mg/kg (guanfacine free base equivalents)) it was 57%. The Cmax is 0.93 ng/mL in data set [2]; 0.089 ± 0.038 ng/mL in data set [4] (read-out: Cmax, analyte Compound 3); 149 ng/mL in [5] (hepatic portal vein plasma, read-out: Hepatic portal vein Prodrug Cmax); 16.4 ng/mL in data set [5] (tail vein (systemic) plasma, read-out: Tail vein Prodrug Cmax). For the same compound, in data set [2] (monkeys, 0.5 mg/kg guanfacine free base equivalents), the “Time after administration up to which systemic prodrug was detectable” value is on record as “up to 24 hours”. Also, the solubility in data set [3] (setting [13]) is above 10000 µg/mL; in data set [3] (water, in water), below 1000 µg/mL. For the same compound, the half-life in [4] (n = 4, read-out: t½, analyte Compound 3 (converted)) is 57 ± 11.4 min. Besides, in [4] (read-out: AUC0-t, analyte Compound 3), the AUC(0-t) is 0.092 ± 0.043 ng·h/mL. Further, the AUC in data set [5] (hepatic portal vein plasma, read-out: Hepatic portal vein Prodrug AUC) turned out to be 397 ng·h/mL; in [5] (tail vein (systemic) plasma, read-out: Tail vein Prodrug AUC), 88.6 ng·h/mL. The inhibition constant (Ki) in data set [6] was above 10 µM.

For the compound `CCC(C)OC(=O)NC(N)=NC(=O)Cc1c(Cl)cccc1Cl.Cl` (stereo not drawn) [Compound 7, 2-{N′-[2-(2,6-Dichloro-phenyl)-acetyl]-guanidinocarbonyloxy}-butane Hydrochloride], the solubility in data set [7] (organic solvent or mixture) is above 10000 µg/mL; in data set [7] (water), below 1000 µg/mL. For the same compound, the Active drug in [8] (setting [14]), in data set [8] (setting [15]), in [8] (setting [16]), in data set [8] (setting [17]), in [8] (setting [18]) and in [8] (setting [19]) was 0.0 in each case. Besides, the Active drug in data set [8] (pH 7.4, 37° C., 0.1M phosphate buffer, 2 h) came to 0.0; in data set [8] (setting [20]), 0.0. Moreover, the Pro-drug in data set [8] (setting [14]) is 95.9; in data set [8] (setting [15]) it was 100; in data set [8] (pH 3.0, 20° C., 0.1M citrate buffer, 2 h, listed as Guanfacine 2-Butanol Carbamate Hydrochloride, Hydrochloride) it was 98.7 and 98.9; in data set [8] (setting [17]), 100; in [8] (setting [18]), 93.4; in [8] (setting [19]) it was 100. The Pro-drug in data set [8] (pH 7.4, 37° C., 0.1M phosphate buffer, 2 h, listed as Guanfacine 2-Butanol Carbamate Hydrochloride, Hydrochloride) is 93.4 and 93.6; in [8] (setting [20]), 100.

Consider `NC(=NC(=O)Cc1c(Cl)cccc1Cl)NC(=O)OCCO` [Compound 19, 2-{N′-[2-(2,6-Dichloro-phenyl)-acetyl]-guanidinocarbonyloxy}ethanol], for which the “Change in time spent in the open arms” value in data set [9] (10 mg/kg, NS) is recorded as “+69%”. The “Change in percent of entries in open arms” value in data set [9] (10 mg/kg, p<0.05) is reported as “+87%”. In addition, in [9] (rat), the “Efficacy in the Elevated Plus-Maze Test” value is on record as “efficacious”. Further, the Cmax in data set [2] amounted to 60.8 ng/mL. The solubility in [3] (setting [13]) is above 10000 µg/mL; in data set [3] (water, in water) it was below 1000 µg/mL; in [3] (water/CH3CN (1:1), aqueous with cosolvent or surfactant or cyclodextrin, in water/CH3CN (1:1)), above 10000 µg/mL. Besides, the Active drug in data set [8] (setting [14]) was found to be 0.5; in data set [8] (setting [15]), 0.0; in data set [8] (setting [16]), 0.4; in data set [8] (setting [17]), 0.0; in [8] (setting [18]) it was 9.8; in [8] (setting [19]), 0.0. Moreover, the Active drug in data set [8] (setting [21]) is 22.6 and 22.3; in data set [8] (setting [20]), 0.0. The Pro-drug was 91.4 and 91.5 in [8] (pH 1.2, 37° C., 0.1M HCl/NaCl buffer, 1 h, listed as Guanfacine (2-Hydroxyethyl) Carbamate); 100 in data set [8] (setting [15]); 98.0 in data set [8] (setting [16]); 100 in [8] (setting [17]); 87.4 and 87.5 in data set [8] (pH 6.8, 37° C., 0.1M phosphate buffer, 2 h, listed as Guanfacine (2-Hydroxyethyl) Carbamate); 100 in data set [8] (setting [19]). The Pro-drug is 72.5 and 73.0 in data set [8] (setting [21]); 100 in data set [8] (setting [20]).

For the compound `N=C(N)NC(=O)Cc1c(Cl)cccc1Cl` [Guanfacine, N-Amidino-2-(2,6-dichlorophenyl)acetamide monohydrochloride, reference compound], the results for the “% inhibition of rat GIT transit” value in [1] (setting [11]) and in data set [1] (setting [12]) were 41% and 56%, respectively. In addition, the “Reduction in the distance traveled by the charcoal plug within 20 minutes, compared to control group” value in data set [1] (0.1 mg base/kg) is recorded as “about 41%”. In data set [10], the “Time after dosing at which peak plasma drug levels are reached” value was at least 1 h.
